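Following 48 hours of exposure in 96-well plates, responses at five concentrations were used to interpolate endpoints linearly. TGI: total growth inhibition.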
Columns and labels:
Assay in all cases: NCI tumour cell line growth inhibition, 48 h
EKVX NSCLC = test system: EKVX NSCLC
T-47D breast = test system: T-47D breast
RPMI-8226 leukemia = test system: RPMI-8226 leukemia
SF-539 CNS = test system: SF-539 CNS
MDA-N = test system: MDA-N
TK-10 renal = test system: TK-10 renal
HCT-116 colon = test system: HCT-116 colon
786-0 renal = test system: 786-0 renal
IGROV1 ovarian = test system: IGROV1 ovarian
HS 578T breast = test system: HS 578T breast
OVCAR-8 ovarian = test system: OVCAR-8 ovarian

| Compound | TGI (EKVX NSCLC) [µM] | TGI (T-47D breast) [µM] | TGI (RPMI-8226 leukemia) [µM] | TGI (SF-539 CNS) [µM] | TGI (MDA-N) [µM] | TGI (TK-10 renal) [µM] | TGI (HCT-116 colon) [µM] | TGI (786-0 renal) [µM] | TGI (IGROV1 ovarian) [µM] | TGI (HS 578T breast) [µM] | TGI (OVCAR-8 ovarian) [µM] |
| --- | --- | --- | --- | --- | --- | --- | --- | --- | --- | --- | --- |
| Cc1cccc(N(C(=O)Nc2ccc(Cl)c(Cl)c2)C2=NCC(C)S2)c1 (stereo not given) | > 100 | > 100 | > 100 | > 100 | > 100 | 80.3 | > 100 | > 100 | > 100 | > 100 | > 100 |
| Cn1c(O)c(C=Nc2ccccc2[N+](=O)[O-])c(=O)n(C)c1=O | > 100 | > 100 | > 100 | > 100 | > 100 | > 100 | > 100 | > 100 | > 100 | > 100 | > 100 |
| CCOC(=O)c1nc2ccccc2nc1NCc1cc(OC)c(OC)c(OC)c1 | > 100 | > 100 | > 100 | > 100 | 51.8 | > 100 | > 100 | > 100 | > 100 | > 100 | > 100 |
| C[C@H](NC(=O)c1ccc(CNC(=O)/C=C/c2cccc(Oc3ccccc3)c2)cc1)c1ccccc1 | > 100 | > 100 | > 100 | 67.8 | > 100 | > 100 | > 100 | > 100 | > 100 | > 100 | > 100 |
| O=S(=O)(O)C(=Nc1cccc(Cc2ccccc2)c1)Nc1cccc(Cc2ccccc2)c1 | 30.9 | 32.1 | 83.1 | 34.7 | 47.2 | 35.6 | 28.2 | 29 | 31.3 | 45.5 | 36.2 |
| CC(C)OCC1CC(CC(=O)Nc2nncs2)C(=O)O1 (stereo not given) | > 100 | > 100 | > 100 | > 100 | > 100 | > 100 | > 100 | > 100 | > 100 | > 100 | > 100 |
| COC(=O)C1CN=CN1CCc1ccccc1 (stereo not given) | > 100 | > 100 | > 100 | > 100 | > 100 | > 100 | > 100 | > 100 | > 100 | > 100 | > 100 |
| Brc1cc(CCOC2CCCCO2)c(-c2sccc2CCOC2CCCCO2)s1 (stereo not given) | > 100 | > 100 | > 100 | > 100 | > 100 | > 100 | > 100 | > 100 | > 100 | > 95.7 | > 100 |
| CC(C)=CCC/C(=C/CC/C(=C\CCc1ccoc1)C(=O)O)C(=O)O | > 100 | > 100 | > 100 | > 100 | > 100 | > 100 | > 100 | > 100 | > 100 | > 100 | > 100 |
| COC(=O)CNS(=O)(=O)c1ccc(-c2c3nc(c(-c4ccc(S(=O)(=O)NCC(=O)OC)cc4)c4ccc([nH]4)c(-c4ccc(S(=O)(=O)NCC(=O)OC)cc4)c4nc(c(-c5ccc(S(=O)(=O)NCC(=O)OC)cc5)c5ccc2[nH]5)C=C4)C=C3)cc1 | > 100 | > 100 | > 100 | > 100 | > 100 | > 100 | > 100 | > 100 | > 100 | > 100 | > 100 |
| O=c1ccn([C@@H]2C[C@@H]2CO)c(=O)[nH]1 | > 100 | > 100 | > 100 | > 100 | > 100 | > 100 | > 100 | > 100 | > 100 | > 100 | > 100 |
| CCn1c(SCC(=O)NNC(=S)Nc2ccc([N+](=O)[O-])cc2)nc2ccccc2c1=O | > 100 | > 100 | > 100 | > 100 | > 100 | > 100 | > 100 | > 100 | > 100 | > 100 | > 100 |
| O=C1CSC(c2ccc([N+](=O)[O-])cc2)N1c1ccc(-n2c(-c3ccccc3)nc3ccccc3c2=O)cc1 (stereo not given) | > 100 | > 100 | > 100 | > 100 | > 100 | > 100 | > 100 | > 100 | > 100 | > 100 | > 100 |
| CCOP(=O)(OCC)C(C)(CC)N/C(=N/C(NC(C)=O)(C(F)(F)F)C(F)(F)F)NC1=NC(C(F)(F)F)(C(F)(F)F)N=C(C(F)(F)F)O1 (stereo not given) | > 100 | > 100 | 73.7 | > 100 | > 100 | > 100 | > 100 | > 100 | > 100 | > 100 | > 100 |
| CCOP(=O)(OCC)C(Nc1ccc(Br)cc1)c1cccc([N+](=O)[O-])c1 (stereo not given) | 10.8 | 37.1 | 98.2 | 45.6 | 37.2 | 88.1 | 25.6 | 44.8 | 76.5 | 61.1 | > 100 |
| Cc1ccc(/C=C/c2nnc(N/N=C/c3ccc4c(c3)OCO4)[nH]c2=O)cc1 | > 100 | > 100 | > 100 | 42.4 | 62.4 | 58.6 | 45.9 | 27.9 | 41.8 | 34.6 | 34.7 |
| CC1=NN(c2cccc(Cl)c2)C2(SCC(=O)N2c2nc3ccccc3s2)/C1=C\c1cccs1 (stereo not given) | 38.4 | > 100 | 38.7 | 16.1 | 52.4 | 80.6 | 52.1 | 41.1 | > 100 | 59 | 51.8 |
| Cc1cccc(CP(Cc2cccc(C)c2)CC2(Cp3c4ccccc4c4ccccc43)COC2)c1 | > 100 | > 100 | > 62.5 | > 100 | > 100 | > 71.8 | > 100 | > 31.6 | > 100 | > 100 | > 100 |
| C=CCC1(OC(C)=O)C2OC(=O)C1(O)OCC2O (stereo not given) | > 100 | > 100 | > 100 | > 100 | > 100 | > 100 | > 100 | > 100 | > 100 | > 100 | > 100 |

| Compound | TGI (EKVX NSCLC) [µM] | TGI (T-47D breast) [µM] | TGI (RPMI-8226 leukemia) [µM] | TGI (SF-539 CNS) [µM] | TGI (MDA-N) [µM] | TGI (TK-10 renal) [µM] | TGI (HCT-116 colon) [µM] | TGI (786-0 renal) [µM] | TGI (IGROV1 ovarian) [µM] | TGI (HS 578T breast) [µM] | TGI (OVCAR-8 ovarian) [µM] |
| --- | --- | --- | --- | --- | --- | --- | --- | --- | --- | --- | --- |
| COc1cc(OC)nc(-n2c(N)c(C#N)c3ccc([N+](=O)[O-])cc3c2=O)n1 | > 100 | > 100 | > 100 | > 100 | > 100 | > 100 | > 100 | > 100 | > 100 | > 100 | > 100 |
| CC(=O)O[C@H]1[C@@H]2OC(=O)[C@@](O)(CC3CCCO3)[C@@H]2CC(=O)[C@](C)(O)CC/C=C(\C)CCC[C@@H]1C (stereo not given in full) | > 100 | > 100 | > 100 | 36.7 | 49.4 | > 100 |  | > 100 | > 100 | > 100 | > 100 |
| CCOC(=O)c1cn2c(n1)sc1c(Cl)c(Cl)ccc12 | > 100 | > 90.5 | > 100 | 21.4 | 3.83 | > 79.4 | 33 | 31.2 | > 100 | 28.6 | > 66 |
| O=C(CCCN1CCC2(CC1)CC(=O)N(N1CCCCCC1)C2=O)c1ccccc1 | > 100 | > 100 | > 100 | > 100 | > 100 | > 100 | > 100 | > 100 | > 100 | > 100 | > 100 |
| COc1ccc(-n2cnc3c2NC(C)(C)N=C3C(N)=O)c(OC)c1 | > 100 | > 100 | > 100 | > 100 | > 100 | > 100 | > 100 | > 100 | > 100 | > 100 | > 100 |
| COc1ccc(C(=O)c2sc(Nc3ccc(Cl)cc3)nc2N)cc1 | > 100 | > 100 | > 43.5 | 66.2 | > 22.2 | 33.4 | > 34.4 | 28.6 | > 53.9 | 47.4 | > 100 |
| S=C1N(/N=C/c2c3ccccc3cc3ccccc23)C(=Nc2ccccc2)C(=Nc2ccccc2)N1c1ccccc1 | > 100 | > 100 | > 100 | > 100 | > 100 | > 100 | > 100 | > 100 | > 100 | > 100 | > 100 |
| COc1cc2c(cc1OC)C(=O)/C(=C/c1ccc(Cl)cc1)CC2 | > 10 | > 10 | > 10 | > 10 | > 10 | > 10 | > 10 | > 10 | > 10 | > 10 | > 10 |
| CC(C)(C)OC(=O)N1CCC(C(=O)O)CC1 | > 100 | > 100 | > 100 | > 100 | > 100 | > 100 | > 100 | > 100 | > 100 | > 100 | > 100 |
| CCCCCCC(=O)O[C@H]1CC[C@H]2[C@@H]3CCC4C/C(=N/NC(=O)c5cccc6c(=O)c7ccccc7[nH]c56)C=C(C)[C@]4(C)[C@H]3CC[C@]12C (stereo not given in full) | > 25 | > 25 | > 25 | > 25 | > 25 | > 25 | > 25 | > 25 | > 25 | > 25 | > 25 |
| CN(C)CCN(C)c1ccc2c(=O)n(CCN(C)C)c(=O)n3c4ccccc4c(=O)c1c23 | 6.92 | 9.77 | 3.32 | 2.15 | 2.89 | 5.43 | 3.14 | 10.2 | 8.02 | 8.65 | 7.15 |
| CC(C)(C)c1cc(C2=NNC(c3ccccc3)C2)cc(C(C)(C)C)c1O (stereo not given) | 36.6 | 26.8 | 43.8 | 44.7 | 28.5 | 29.4 | 28.3 | 29.6 | 30.2 | 55.6 | 31.7 |
| O=C(CCc1ccc(O)c(O)c1)NCCc1cc(O)cc(O)c1 | > 100 | > 100 | > 100 | > 100 | 48.1 | > 100 | > 100 | > 100 | > 100 | > 100 | > 100 |
| Cc1nn(C(=O)c2ccc(Cl)cc2)c2c1C(c1ccccc1[N+](=O)[O-])SC(N)=N2 (stereo not given) | > 10 | > 10 | > 10 | > 10 | > 10 | > 10 | > 10 | > 10 | > 10 | > 10 | > 10 |
| Cc1nn(C(=O)Cc2ccccc2)c2c1C(c1ccc(O)cc1O)SC(N)=N2 (stereo not given) | > 100 | > 100 | > 100 | > 100 | > 100 | > 100 | > 100 | > 100 | > 100 | > 100 | > 100 |
| COc1ccc(CC(=O)N2CCC3(C)CC(=O)CC=C23)cc1OC (stereo not given) | > 100 | > 100 | > 100 | > 100 | > 100 |  | > 100 | > 100 | > 100 | > 100 | > 100 |
| Cc1ccc(N(C(=O)Nc2ccccc2)C2=NCC(C)S2)cc1C (stereo not given) | 72.1 | > 100 | 49 | 48.5 | 31.9 | 55.2 | 46.5 | 46.6 | 89.8 | 77.4 | 91.2 |
| Cn1c2ccc3cc2c(=S)c2cc(ccc21)OCCOCCOCCOCCOCCO3 | > 10 | > 10 | > 10 | > 10 | > 10 | > 10 | > 10 | > 10 | > 10 | > 10 | > 10 |

From PubChem BioAssay (NCI)
